Assay results published in PMC12970513, “Unsaturated Phosphorus Electrophiles to Probe Protein Tyrosine Phosphatases” (Angewandte Chemie (International Ed. in English), 2026).

System: PTP1B in MCF-7 cell lysate
Test: Lysate labeling by western blot, MCF-7
Set-up: species or system human
Details: 25–500 µM, 4 h, MCF-7 lysate 4 mg/mL
Experimental: To verify a consistent labeling profile by TMR‐PO, we tested additional PTP1B‐containing mammalian lysates. […] Therefore, we attempted to identify conditions where more intense labeling is noticeable. […] Increasing reaction time led to a proportional increase in biotin‐signal overlapping with the PTP1B band. […] A 4‐h incubation was chosen for the following experiments for ease of protocol and due to the robust labeling observed.
In that respect, following a 4‐h incubation time, we tested increasing concentrations of bio‐PO up to 500 µM to further increase the labeling efficiency. […] This highlights that labeling is also consistent with the abundance of PTP1B in these cell lines, which was measured by quantitative proteomics (Figure 5b). […]
For western blot analysis, samples resolved by SDS-PAGE were transferred to a polyvinylidene difluoride (PVDF) membrane using a Trans-Blot Turbo (Bio-Rad) semi dry blotting system according to the manufacturer`s instructions. […] The HRP signal was detected using the Pierce ECL Western Blotting Substrate (ThermoFisher Scientific) and imaged using the ChemiDoc (Bio-Rad) imaging system. […] Biotin was probed against using Streptavidin-horse radish peroxidase (HRP) conjugate (Thermo Fisher Scientific, N100) at a 1:5000 dilution for 1 hour at room temperature and the HRP signal was detected as mentioned above. […]

Row | Structure (SMILES) | labeling of MCF-7 lysate by small molecule control SM-PN | labeling of MCF-7 lysate by small molecule control SM-PO
1 | C#CP(=O)(O)Nc1ccc(CCNC(=O)CCCC[C@@H]2SC[C@@H]3NC(=O)N[C@@H]32)cc1 [SM-PN, N-(4-(2-biotinamidoethyl)phenyl)-P-ethynylphosphonamidic acid] | No labeling was observed | –
2 | C#CP(=O)(O)Oc1ccc(CCNC(=O)CCCC[C@@H]2SC[C@@H]3NC(=O)N[C@@H]32)cc1 [SM-PO, 4-(2-biotinamidoethyl)phenyl ethynylphosphonic acid monoester] | – | a band with increasing intensity was apparent in the biotin signal upon concentration increase
